Measured values published in patent US10613078B2, “Assays for measuring cardiotoxicity” (NCARDIA B.V., priority 2015, dated 2020).

System: human stem-cell derived cardiomyocytes
Assay: Promega ATP assay (CellTiter-Glo luminescent cell viability) on cardiomyocytes
Assay type: cell-based
Excerpt: Cells were dissociated at day 21 using 10× TrypLE select and replated at 20.000 cells/well in white 96-well plates (Corning 655098) and treated according to the protocol shown in FIG. 1. Alternatively, Pluricyte Cardiomyocytes were obtained from Pluriomics (Leiden, The Netherlands). The cryopreserved cells were recovered in maintained in Pluricyte Medium (Pluriomics, Leiden, The Netherlands) and thereafter cultivated on medium without glucose and/or galactose but comprising fatty acids and carnitine as described below. […]
After two days, an ATP viability assay was performed. ATP values were measured using the Promega Cell titer Glo luminescent cell viability kit according to manufacturers instructions. […] Available ATP is measured via an ATP dependent conversion of Luciferin by a recombinant Luciferase, which produces oxyluciferin and light. The amount of luminescence generated is therefore directly proportional to the amount of ATP in the cells.

Compound: COc1cccc2c1C(=O)c1c(O)c3c(c(O)c1C2=O)C[C@@](O)(C(=O)CO)C[C@@H]3O[C@H]1C[C@H](N)[C@H](O)[C@H](C)O1 [doxorubicin]
- effect on ATP levels (cardiomyocytes cultivated in the presence of glucose, various concentrations of doxorubicin, n=6 (FIG. 2)): shows a clear effect on ATP levels
- mitochondrial toxicity (ATP levels), CM versus CM− medium (cells grown in CM (with glucose) compared with CM− (without glucose and galactose, with fatty acids and carnitine) (FIG. 3, lower panel)): more pronounced in cells cultured in CM−
